Experimental data reported in ChEMBL document CHEMBL4507294, “Data for DCP probe MSD-CYP11B2” (2021).

Key:
[1] = target: Tyrosine-protein kinase ABL1 (Homo sapiens) (UniProt P00519); conditions: Compound concentration 1000.0 nM
[2] = target: Activin receptor type-1B (Homo sapiens) (UniProt P36896); conditions: Compound concentration 1000.0 nM
[3] = system: Serine/threonine-protein kinase B-raf (Homo sapiens), P15056 [V600E]; conditions: Compound concentration 1000.0 nM
[4] = target: Calcium/calmodulin-dependent protein kinase type 1 (Homo sapiens) (UniProt Q14012); conditions: Compound concentration 1000.0 nM
[5] = target: Cyclin-dependent kinase 7 (Homo sapiens) (UniProt P50613); conditions: Compound concentration 1000.0 nM
[6] = target: Dual specificity protein kinase CLK2 (Homo sapiens) (UniProt P49760); conditions: Compound concentration 1000.0 nM
[7] = target: Dual specificity protein kinase CLK4 (Homo sapiens) (UniProt Q9HAZ1); conditions: Compound concentration 1000.0 nM
[8] = target: Death-associated protein kinase 2 (Homo sapiens) (UniProt Q9UIK4); conditions: Compound concentration 1000.0 nM
[9] = target: Serine/threonine-protein kinase DCLK1 (Homo sapiens) (UniProt O15075); conditions: Compound concentration 1000.0 nM
[10] = target: Discoidin domain-containing receptor 2 (Homo sapiens) (UniProt Q16832); conditions: Compound concentration 1000.0 nM
[11] = target: Myotonin-protein kinase (Homo sapiens) (UniProt Q09013); conditions: Compound concentration 1000.0 nM
[12] = target: Serine/threonine-protein kinase 17A (Homo sapiens) (UniProt Q9UEE5); conditions: Compound concentration 1000.0 nM
[13] = target: Dual specificity tyrosine-phosphorylation-regulated kinase 1A (Homo sapiens) (UniProt Q13627); conditions: Compound concentration 1000.0 nM
[14] = target: Mitogen-activated protein kinase 1 (Homo sapiens) (UniProt P28482); conditions: Compound concentration 1000.0 nM
[15] = target: Mitogen-activated protein kinase 4 (Homo sapiens) (UniProt P31152); conditions: Compound concentration 1000.0 nM
[16] = target: Tyrosine-protein kinase Fes/Fps (Homo sapiens) (UniProt P07332); conditions: Compound concentration 1000.0 nM
[17] = system: Receptor-type tyrosine-protein kinase FLT3 (Homo sapiens), P36888 [N841I]; conditions: Compound concentration 1000.0 nM
[18] = system: eIF-2-alpha kinase GCN2 (Homo sapiens), Q9P2K8 [S808G]; conditions: Compound concentration 1000.0 nM
[19] = target: Homeodomain-interacting protein kinase 1 (Homo sapiens) (UniProt Q86Z02); conditions: Compound concentration 1000.0 nM
[20] = target: Mitogen-activated protein kinase kinase kinase kinase 1 (Homo sapiens) (UniProt Q92918); conditions: Compound concentration 1000.0 nM
[21] = target: Serine/threonine-protein kinase LATS2 (Homo sapiens) (UniProt Q9NRM7); conditions: Compound concentration 1000.0 nM
[22] = target: Mitogen-activated protein kinase kinase kinase 1 (Homo sapiens) (UniProt Q13233); conditions: Compound concentration 1000.0 nM
[23] = target: Dual specificity mitogen-activated protein kinase kinase 1 (Homo sapiens) (UniProt Q02750); conditions: Compound concentration 1000.0 nM
[24] = target: Mitogen-activated protein kinase kinase kinase 9 (Homo sapiens) (UniProt P80192); conditions: Compound concentration 1000.0 nM
[25] = target: Serine/threonine-protein kinase 3 (Homo sapiens) (UniProt Q13188); conditions: Compound concentration 1000.0 nM
[26] = target: Mitogen-activated protein kinase 13 (Homo sapiens) (UniProt O15264); conditions: Compound concentration 1000.0 nM
[27] = target: 3-phosphoinositide-dependent protein kinase 1 (Homo sapiens) (UniProt O15530); conditions: Compound concentration 1000.0 nM
[28] = target: Phosphorylase b kinase gamma catalytic chain, skeletal muscle/heart isoform (Homo sapiens) (UniProt Q16816); conditions: Compound concentration 1000.0 nM
[29] = system: Phosphatidylinositol 4,5-bisphosphate 3-kinase catalytic subunit alpha isoform (Homo sapiens), P42336 [I800L]; conditions: Compound concentration 1000.0 nM
[30] = target: Serine/threonine-protein kinase PknB (Mycobacterium tuberculosis) (UniProt P9WI81); conditions: Compound concentration 1000.0 nM
[31] = target: Protein kinase C iota type (Homo sapiens) (UniProt P41743); conditions: Compound concentration 1000.0 nM
[32] = target: Ribosomal protein S6 kinase alpha-4 (Homo sapiens) (UniProt O75676); conditions: Compound concentration 1000.0 nM
[33] = target: SRSF protein kinase 1 (Homo sapiens) (UniProt Q96SB4); conditions: Compound concentration 1000.0 nM
[34] = target: Serine/threonine-protein kinase TAO3 (Homo sapiens) (UniProt Q9H2K8); conditions: Compound concentration 1000.0 nM
[35] = target: Tyrosine-protein kinase Tec (Homo sapiens) (UniProt P42680); conditions: Compound concentration 1000.0 nM
[36] = target: TGF-beta receptor type-2 (Homo sapiens) (UniProt P37173); conditions: Compound concentration 1000.0 nM
[37] = target: Angiopoietin-1 receptor (Homo sapiens) (UniProt Q02763); conditions: Compound concentration 1000.0 nM
[38] = target: NT-3 growth factor receptor (Homo sapiens) (UniProt Q16288); conditions: Compound concentration 1000.0 nM
[39] = target: Serine/threonine-protein kinase 32B (Homo sapiens) (UniProt Q9NY57); conditions: Compound concentration 1000.0 nM
[40] = target: Tyrosine-protein kinase Yes (Homo sapiens) (UniProt P07947); conditions: Compound concentration 1000.0 nM
[41] = target: D(1A) dopamine receptor (Homo sapiens) (UniProt P21728); conditions: Compound concentration 10.0 uM
[42] = target: Alpha-1B adrenergic receptor (Homo sapiens) (UniProt P35368); conditions: Compound concentration 10.0 uM
[43] = target: GABA-A receptor; anion channel (Rattus norvegicus) (UniProt O09028+P15431+P18506+P18508+P19969+P20236+P23574+P23576+P28471+P28473+P30191+P62813+P63079+P63138+Q91ZM7+Q9ES14); conditions: Compound concentration 10.0 uM
[44] = target: Sigma non-opioid intracellular receptor 1 (Homo sapiens) (UniProt Q99720); conditions: Compound concentration 10.0 uM
Chain of Sigma non-opioid intracellular receptor 1 (Homo sapiens) (Q99720 whole entry): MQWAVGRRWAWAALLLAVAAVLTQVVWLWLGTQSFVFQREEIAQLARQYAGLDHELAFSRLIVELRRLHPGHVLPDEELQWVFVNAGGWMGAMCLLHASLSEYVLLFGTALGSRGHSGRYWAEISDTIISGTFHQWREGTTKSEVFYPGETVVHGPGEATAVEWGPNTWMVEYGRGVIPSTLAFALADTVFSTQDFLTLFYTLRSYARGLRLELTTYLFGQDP

Chain of Serine/threonine-protein kinase 17A (Homo sapiens) (Q9UEE5 whole entry): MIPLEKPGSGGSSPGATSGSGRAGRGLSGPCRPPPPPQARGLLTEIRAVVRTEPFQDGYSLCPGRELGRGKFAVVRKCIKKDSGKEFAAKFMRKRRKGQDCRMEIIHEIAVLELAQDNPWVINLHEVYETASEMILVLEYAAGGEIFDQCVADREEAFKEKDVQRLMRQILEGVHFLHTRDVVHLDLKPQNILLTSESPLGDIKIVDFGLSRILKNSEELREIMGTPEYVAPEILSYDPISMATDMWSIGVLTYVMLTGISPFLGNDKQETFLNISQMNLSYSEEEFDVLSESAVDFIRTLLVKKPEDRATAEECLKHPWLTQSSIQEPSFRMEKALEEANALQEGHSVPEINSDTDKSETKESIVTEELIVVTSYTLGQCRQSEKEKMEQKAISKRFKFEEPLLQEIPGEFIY
Chain of Dual specificity protein kinase CLK2 (Homo sapiens) (P49760 whole entry, looked up): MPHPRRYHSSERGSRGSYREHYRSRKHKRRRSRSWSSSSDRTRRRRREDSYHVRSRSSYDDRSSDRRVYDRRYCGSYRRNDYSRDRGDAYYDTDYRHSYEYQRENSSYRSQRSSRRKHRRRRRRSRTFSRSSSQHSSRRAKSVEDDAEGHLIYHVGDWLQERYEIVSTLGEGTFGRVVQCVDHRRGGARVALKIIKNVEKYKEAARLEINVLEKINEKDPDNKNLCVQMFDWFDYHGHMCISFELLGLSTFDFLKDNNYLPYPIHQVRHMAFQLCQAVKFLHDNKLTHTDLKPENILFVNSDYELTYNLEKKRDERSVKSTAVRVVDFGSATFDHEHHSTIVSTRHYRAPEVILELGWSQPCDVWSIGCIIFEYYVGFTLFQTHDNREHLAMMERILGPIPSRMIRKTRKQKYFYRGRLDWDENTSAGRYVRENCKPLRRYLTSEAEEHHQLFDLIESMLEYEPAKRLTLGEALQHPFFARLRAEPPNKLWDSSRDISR
Chain of Mitogen-activated protein kinase 4 (Homo sapiens) (P31152 whole entry): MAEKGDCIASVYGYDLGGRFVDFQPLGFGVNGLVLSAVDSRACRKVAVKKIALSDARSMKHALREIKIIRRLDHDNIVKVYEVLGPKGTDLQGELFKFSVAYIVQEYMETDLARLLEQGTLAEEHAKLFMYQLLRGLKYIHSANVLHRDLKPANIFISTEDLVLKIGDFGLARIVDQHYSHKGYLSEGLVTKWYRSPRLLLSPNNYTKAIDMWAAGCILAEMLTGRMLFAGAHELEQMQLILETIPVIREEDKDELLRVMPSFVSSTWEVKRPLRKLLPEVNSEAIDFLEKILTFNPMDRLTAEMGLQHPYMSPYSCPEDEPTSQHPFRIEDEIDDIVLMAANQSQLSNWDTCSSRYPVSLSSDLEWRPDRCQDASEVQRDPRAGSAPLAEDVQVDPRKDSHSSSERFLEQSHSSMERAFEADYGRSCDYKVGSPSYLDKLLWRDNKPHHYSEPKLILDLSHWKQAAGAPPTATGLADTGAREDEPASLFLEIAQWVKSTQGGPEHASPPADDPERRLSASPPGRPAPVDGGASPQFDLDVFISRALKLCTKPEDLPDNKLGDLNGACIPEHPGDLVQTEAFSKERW
Chain of Dual specificity protein kinase CLK4 (Homo sapiens) (Q9HAZ1 whole entry, looked up): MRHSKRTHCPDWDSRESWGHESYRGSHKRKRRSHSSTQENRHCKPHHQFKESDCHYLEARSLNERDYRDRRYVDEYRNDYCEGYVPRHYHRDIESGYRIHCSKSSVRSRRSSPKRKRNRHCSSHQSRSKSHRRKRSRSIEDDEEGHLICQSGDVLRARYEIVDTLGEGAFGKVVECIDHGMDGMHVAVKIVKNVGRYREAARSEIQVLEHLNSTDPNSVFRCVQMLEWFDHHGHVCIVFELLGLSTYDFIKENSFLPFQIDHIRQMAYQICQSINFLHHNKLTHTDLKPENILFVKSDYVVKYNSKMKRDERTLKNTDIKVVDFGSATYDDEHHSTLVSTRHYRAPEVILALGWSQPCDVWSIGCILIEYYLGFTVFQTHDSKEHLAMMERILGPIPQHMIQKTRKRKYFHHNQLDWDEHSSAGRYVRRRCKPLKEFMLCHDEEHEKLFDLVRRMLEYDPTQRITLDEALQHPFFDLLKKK
Chain of Mitogen-activated protein kinase 1 (Homo sapiens) (P28482 whole entry): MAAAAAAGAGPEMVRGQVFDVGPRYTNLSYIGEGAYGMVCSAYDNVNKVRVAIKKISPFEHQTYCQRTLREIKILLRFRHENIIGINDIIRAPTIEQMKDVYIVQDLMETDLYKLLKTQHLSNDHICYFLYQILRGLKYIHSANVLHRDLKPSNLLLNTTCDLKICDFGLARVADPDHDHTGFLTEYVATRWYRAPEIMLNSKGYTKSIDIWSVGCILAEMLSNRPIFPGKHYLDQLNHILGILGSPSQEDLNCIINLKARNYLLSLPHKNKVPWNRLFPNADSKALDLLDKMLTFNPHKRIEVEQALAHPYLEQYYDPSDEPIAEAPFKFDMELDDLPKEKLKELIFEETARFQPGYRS
Chain of eIF-2-alpha kinase GCN2 (Homo sapiens), Q9P2K8 [S808G] (Q9P2K8 whole entry S808G): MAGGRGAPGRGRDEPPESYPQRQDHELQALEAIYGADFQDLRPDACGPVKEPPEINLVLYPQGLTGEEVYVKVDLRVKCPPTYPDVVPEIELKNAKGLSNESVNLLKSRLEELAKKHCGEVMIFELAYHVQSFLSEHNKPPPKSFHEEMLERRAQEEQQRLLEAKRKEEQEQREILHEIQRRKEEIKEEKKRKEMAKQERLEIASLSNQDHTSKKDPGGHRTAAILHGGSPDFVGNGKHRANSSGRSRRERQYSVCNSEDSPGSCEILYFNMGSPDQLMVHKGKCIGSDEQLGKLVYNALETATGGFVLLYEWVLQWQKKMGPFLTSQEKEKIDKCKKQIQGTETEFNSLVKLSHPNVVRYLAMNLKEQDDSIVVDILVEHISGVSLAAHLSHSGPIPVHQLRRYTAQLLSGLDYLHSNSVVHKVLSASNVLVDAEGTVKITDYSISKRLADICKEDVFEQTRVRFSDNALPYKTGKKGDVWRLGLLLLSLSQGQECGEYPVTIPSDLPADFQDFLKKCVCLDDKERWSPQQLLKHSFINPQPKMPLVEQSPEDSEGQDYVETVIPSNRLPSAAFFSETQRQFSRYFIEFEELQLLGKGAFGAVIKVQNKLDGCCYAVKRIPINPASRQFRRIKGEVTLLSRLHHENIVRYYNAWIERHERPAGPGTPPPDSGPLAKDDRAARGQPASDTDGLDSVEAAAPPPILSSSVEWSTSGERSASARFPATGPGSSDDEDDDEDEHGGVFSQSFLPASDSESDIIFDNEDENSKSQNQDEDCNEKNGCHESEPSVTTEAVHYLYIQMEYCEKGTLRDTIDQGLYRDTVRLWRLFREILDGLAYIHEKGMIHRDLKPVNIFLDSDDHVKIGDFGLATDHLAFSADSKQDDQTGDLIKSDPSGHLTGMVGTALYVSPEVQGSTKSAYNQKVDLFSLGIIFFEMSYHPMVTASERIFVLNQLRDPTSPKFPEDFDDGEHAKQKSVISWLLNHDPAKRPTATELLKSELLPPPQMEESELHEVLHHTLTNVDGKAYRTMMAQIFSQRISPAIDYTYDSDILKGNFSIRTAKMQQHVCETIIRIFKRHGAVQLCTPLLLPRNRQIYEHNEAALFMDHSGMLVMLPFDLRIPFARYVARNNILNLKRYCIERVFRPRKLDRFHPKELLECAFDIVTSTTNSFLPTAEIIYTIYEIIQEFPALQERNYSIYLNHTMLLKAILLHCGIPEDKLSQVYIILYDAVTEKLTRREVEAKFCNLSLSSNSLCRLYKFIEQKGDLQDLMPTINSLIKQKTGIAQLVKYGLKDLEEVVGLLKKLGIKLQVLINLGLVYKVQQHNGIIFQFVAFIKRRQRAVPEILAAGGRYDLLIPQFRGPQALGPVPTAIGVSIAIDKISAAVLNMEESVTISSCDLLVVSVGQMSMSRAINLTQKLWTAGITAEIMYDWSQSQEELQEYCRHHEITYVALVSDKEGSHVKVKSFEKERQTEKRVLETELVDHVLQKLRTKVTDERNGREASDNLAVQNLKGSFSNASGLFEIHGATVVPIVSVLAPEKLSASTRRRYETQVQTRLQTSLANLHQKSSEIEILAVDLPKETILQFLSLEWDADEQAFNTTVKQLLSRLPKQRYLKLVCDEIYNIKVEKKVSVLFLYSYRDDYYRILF
Chain of Tyrosine-protein kinase Fes/Fps (Homo sapiens) (P07332 whole entry): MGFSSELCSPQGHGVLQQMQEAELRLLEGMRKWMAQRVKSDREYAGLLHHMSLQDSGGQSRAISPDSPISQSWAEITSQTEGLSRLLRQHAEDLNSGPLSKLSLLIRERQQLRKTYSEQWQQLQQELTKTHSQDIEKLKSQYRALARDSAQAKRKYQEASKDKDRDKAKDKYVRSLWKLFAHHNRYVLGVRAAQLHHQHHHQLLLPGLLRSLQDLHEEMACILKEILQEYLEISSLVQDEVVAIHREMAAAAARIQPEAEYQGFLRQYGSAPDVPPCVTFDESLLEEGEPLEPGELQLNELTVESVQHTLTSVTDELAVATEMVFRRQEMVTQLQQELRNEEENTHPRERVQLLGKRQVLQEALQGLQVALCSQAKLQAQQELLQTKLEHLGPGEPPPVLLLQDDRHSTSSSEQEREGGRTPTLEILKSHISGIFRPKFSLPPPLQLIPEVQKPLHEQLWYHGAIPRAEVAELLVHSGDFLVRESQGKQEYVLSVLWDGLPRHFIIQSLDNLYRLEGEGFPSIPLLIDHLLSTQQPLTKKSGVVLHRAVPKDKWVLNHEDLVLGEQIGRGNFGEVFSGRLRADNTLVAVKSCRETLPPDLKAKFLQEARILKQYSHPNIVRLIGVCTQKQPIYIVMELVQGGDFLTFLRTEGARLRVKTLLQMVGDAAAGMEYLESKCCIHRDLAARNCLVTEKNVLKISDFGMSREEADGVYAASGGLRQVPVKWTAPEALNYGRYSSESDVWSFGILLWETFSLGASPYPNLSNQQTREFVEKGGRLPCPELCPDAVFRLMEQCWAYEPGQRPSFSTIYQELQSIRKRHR

SMILES: CC(C)(O)c1cncc(-c2nc3ccc(F)cc3n2C2CC2)c1 [MSD-CYP11B2]
- residual activity [1]: 98%
- residual activity [2]: 99%
- residual activity [3]: 98%
- residual activity [4]: 100%
- residual activity [5]: 88%
- residual activity [6]: 100%
- residual activity [7]: 54%
- residual activity [8]: 100%
- residual activity [9]: 88%
- residual activity [10]: 100%
- residual activity [11]: 71%
- residual activity [12]: 94%
- residual activity [13]: 48%
- residual activity [14]: 100%
- residual activity [15]: 100%
- residual activity [16]: 100%
- residual activity [17]: 100%
- residual activity [18]: 100%
- residual activity [19]: 97%
- residual activity [20]: 99%
- residual activity [21]: 100%
- residual activity [22]: 100%
- residual activity [23]: 100%
- residual activity [24]: 100%
- residual activity [25]: 100%
- residual activity [26]: 100%
- residual activity [27]: 97%
- residual activity [28]: 100%
- residual activity [29]: 90%
- residual activity [30]: 100%
- residual activity [31]: 89%
- residual activity [32]: 91%
- residual activity [33]: 100%
- residual activity [34]: 100%
- residual activity [35]: 100%
- residual activity [36]: 100%
- residual activity [37]: 93%
- residual activity [38]: 100%
- residual activity [39]: 97%
- residual activity [40]: 100%
- inhibition [41]: 0.87%
- inhibition [42]: 23.8%
- inhibition [43]: 16.6%
- inhibition [44]: 27.7%

SMILES: FC(F)(F)c1ccc2c(c1)nc(-c1cccnc1)n2C1CC1 [MSD-CYP11B2-Negative-control]
- residual activity [1]: 97%
- residual activity [2]: 98%
- residual activity [3]: 100%
- residual activity [4]: 100%
- residual activity [5]: 100%
- residual activity [6]: 100%
- residual activity [7]: 100%
- residual activity [8]: 100%
- residual activity [9]: 84%
- residual activity [10]: 100%
- residual activity [11]: 92%
- residual activity [12]: 100%
- residual activity [13]: 100%
- residual activity [14]: 100%
- residual activity [15]: 100%
- residual activity [16]: 100%
- residual activity [17]: 100%
- residual activity [18]: 93%
- residual activity [19]: 100%
- residual activity [20]: 93%
- residual activity [21]: 100%
- residual activity [22]: 100%
- residual activity [23]: 94%
- residual activity [24]: 100%
- residual activity [25]: 94%
- residual activity [26]: 100%
- residual activity [27]: 94%
- residual activity [28]: 100%
- residual activity [29]: 99%
- residual activity [30]: 100%
- residual activity [31]: 83%
- residual activity [32]: 99%
- residual activity [33]: 80%
- residual activity [34]: 100%
- residual activity [35]: 100%
- residual activity [36]: 100%
- residual activity [37]: 100%
- residual activity [38]: 100%
- residual activity [39]: 100%
- residual activity [40]: 100%
- inhibition [41]: -3.97%
- inhibition [42]: 11.7%
- inhibition [43]: 2.02%
- inhibition [44]: 16.9%
